The source of these data is patent US8173638B2 (Boehringer Ingelheim International GmbH, priority 2006, dated 2012).

The structures appear in SMILES notation.

The target in the test is T1, human CB2R (Homo sapiens, UniProt P34972).
T1 construct: host or cells: CHO cells
T1 sequence (P34972 whole entry): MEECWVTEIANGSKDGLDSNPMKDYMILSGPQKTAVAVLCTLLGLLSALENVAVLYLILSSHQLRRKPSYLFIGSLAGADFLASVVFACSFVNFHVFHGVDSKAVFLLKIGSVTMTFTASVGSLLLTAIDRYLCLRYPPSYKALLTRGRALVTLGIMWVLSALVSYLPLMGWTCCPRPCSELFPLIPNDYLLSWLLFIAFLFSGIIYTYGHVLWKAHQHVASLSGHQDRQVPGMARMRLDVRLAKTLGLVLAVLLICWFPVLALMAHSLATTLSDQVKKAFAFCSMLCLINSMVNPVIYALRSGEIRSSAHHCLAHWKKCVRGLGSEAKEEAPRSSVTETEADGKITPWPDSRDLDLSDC
The test can be described thus: CB2R mediated modulation of cAMP synthesis. The class given is cell-based. Particulars: found through the use of the described assays (CB2 agonists); qualitative statement. Put shortly:
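Forskolin (10 uM)-driven cAMP in human CB2R-expressing CHO cells, read with DiscoverX-XS kit after 30 min compound exposure at 37 °C, 1 mM IBMX, 0.25% BSA. 100% defined as forskolin cAMP relative to 1 uM CP55940 inhibition. Agonist EC50 via four-parameter logistic model.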
As to `CCC(C)c1ccc(NC(=O)N2CCCN(C(=O)N3CCOCC3)CC2)cc1` (stereo not drawn) [4-(Morpholine-4-carbonyl)-[1,4]diazepane-1-carboxylic acid (4-sec-butyl-phenyl)-amide], the agonistic activity entry is on record as “agonistic activity”.

Take `CC(C)(C)c1cc(NC(=O)N2CCCN(C(=O)N3CCCCC3)CC2)no1` [4-(Piperidine-1-carbonyl)-[1,4]diazepane-1-carboxylic acid (5-tert-butyl-isoxazol-3-yl)-amide]: the agonistic activity entry is recorded as “agonistic activity”.

For `CC(C)(C)c1cc(NC(=O)N2CCCN(C(=O)C3CCCNC3)CC2)no1` (stereo not drawn) [4-(Piperidine-3-carbonyl)-[1,4]diazepane-1-carboxylic acid (5-tert-butyl-isoxazol-3-yl)-amide], the agonistic activity entry was “agonistic activity”.

Take `CC(C)(C)c1cc(NC(=O)N2CCCN(C(=O)C3CCNCC3)CC2)no1` [4-(Piperidine-4-carbonyl)-[1,4]diazepane-1-carboxylic acid (5-tert-butyl-isoxazol-3-yl)-amide]: the agonistic activity entry was “agonistic activity”.

Consider `CC(C)c1ccc(NC(=O)N2CCCN(C(=O)c3ccccn3)CC2)cc1` [4-(Pyridine-2-carbonyl)-[1,4]diazepane-1-carboxylic acid (4-isopropyl-phenyl)-amide], for which the agonistic activity entry is “agonistic activity”.

For `CCC(C)c1ccc(NC(=O)N2CCCN(C(=O)c3ccccn3)CC2)cc1` (stereo not drawn) [4-(Pyridine-2-carbonyl)-[1,4]diazepane-1-carboxylic acid (4-sec-butyl-phenyl)-amide], the agonistic activity entry is on record as “agonistic activity”.

`CC(C)c1ccc(NC(=O)N2CCCN(C(=O)c3ccncc3)CC2)cc1` [4-(Pyridine-4-carbonyl)-[1,4]diazepane-1-carboxylic acid (4-isopropyl-phenyl)-amide]: the agonistic activity result is “agonistic activity”.

As to `CC(C)(C)c1cc(NC(=O)N2CCCN(C(=O)C3CCCO3)CC2)no1` (stereo not drawn) [4-(Tetrahydro-furan-2-carbonyl)-[1,4]diazepane-1-carboxylic acid (5-tert-butyl-isoxazol-3-yl)-amide], the agonistic activity entry was “agonistic activity”.

For the compound `CC(C)(C)c1cc(NC(=O)N2CCCN(C(=O)C3CCOC3)CC2)no1` (stereo not drawn) [4-(Tetrahydro-furan-3-carbonyl)-[1,4]diazepane-1-carboxylic acid (5-tert-butyl-isoxazol-3-yl)-amide], the agonistic activity entry is reported as “agonistic activity”.

Take `CC(C)(C)c1cc(NC(=O)N2CCCN(C(=O)C3CCCCO3)CC2)no1` (stereo not drawn) [4-(Tetrahydro-pyran-2-carbonyl)-[1,4]diazepane-1-carboxylic acid (5-tert-butyl-isoxazol-3-yl)-amide]: the agonistic activity result is “agonistic activity”.

Consider `CC(C)(C)c1cc(NC(=O)N2CCCN(C(=O)C3CCCOC3)CC2)no1` (stereo not drawn) [4-(Tetrahydro-pyran-3-carbonyl)-[1,4]diazepane-1-carboxylic acid (5-tert-butyl-isoxazol-3-yl)-amide], for which the agonistic activity result is “agonistic activity”.

For `Cn1c(NC(=O)N2CCCN(C(=O)C3CCOCC3)CC2)nc2ccccc21` [4-(Tetrahydro-pyran-4-carbonyl)-[1,4]diazepane-1-carboxylic acid (1-methyl-1H-benzoimidazol-2-yl)-amide], the agonistic activity result was “agonistic activity”.

As to `Cn1nc(-c2ccccc2)cc1NC(=O)N1CCCN(C(=O)C2CCOCC2)CC1` [4-(Tetrahydro-pyran-4-carbonyl)-[1,4]diazepane-1-carboxylic acid (2-methyl-5-phenyl-2H-pyrazol-3-yl)-amide], the agonistic activity result is reported as “agonistic activity”.

Regarding `O=C(Nc1cc(-c2ccccc2)no1)N1CCCN(C(=O)C2CCOCC2)CC1` [4-(Tetrahydro-pyran-4-carbonyl)-[1,4]diazepane-1-carboxylic acid (3-phenyl-isoxazol-5-yl)-amide], the agonistic activity result is reported as “agonistic activity”.

On to `CCC(C)c1cc(NC(=O)N2CCCN(C(=O)C3CCOCC3)CC2)on1` (stereo not drawn) [4-(Tetrahydro-pyran-4-carbonyl)-[1,4]diazepane-1-carboxylic acid (3-sec-butyl-isoxazol-5-yl)-amide], for which the agonistic activity result is given as “agonistic activity”.

As to `O=C(Nc1nc2c(s1)CCCC2)N1CCCN(C(=O)C2CCOCC2)CC1` [4-(Tetrahydro-pyran-4-carbonyl)-[1,4]diazepane-1-carboxylic acid (4,5,6,7-tetrahydro-benzothiazol-2-yl)-amide], the agonistic activity result is on record as “agonistic activity”.

For the compound `Cc1nc(NC(=O)N2CCCN(C(=O)C3CCOCC3)CC2)sc1C` [4-(Tetrahydro-pyran-4-carbonyl)-[1,4]diazepane-1-carboxylic acid (4,5-dimethyl-thiazol-2-yl)-amide], the agonistic activity result is given as “agonistic activity”.

For the compound `CCCCc1ccc(NC(=O)N2CCCN(C(=O)C3CCOCC3)CC2)cc1` [4-(Tetrahydro-pyran-4-carbonyl)-[1,4]diazepane-1-carboxylic acid (4-butyl-phenyl)-amide], the agonistic activity entry is given as “agonistic activity”.

Take `CCc1ccnc(NC(=O)N2CCCN(C(=O)C3CCOCC3)CC2)c1` [4-(Tetrahydro-pyran-4-carbonyl)-[1,4]diazepane-1-carboxylic acid (4-ethyl-pyridin-2-yl)-amide]: the agonistic activity entry was “agonistic activity”.

In the case of `CC(C)c1ccc(NC(=O)N2CCCN(C(=O)C3CCOCC3)CC2)cc1` [4-(Tetrahydro-pyran-4-carbonyl)-[1,4]diazepane-1-carboxylic acid (4-isopropyl-phenyl)-amide], the agonistic activity result is given as “agonistic activity”.

On to `Cc1csc(NC(=O)N2CCCN(C(=O)C3CCOCC3)CC2)n1` [4-(Tetrahydro-pyran-4-carbonyl)-[1,4]diazepane-1-carboxylic acid (4-methyl-thiazol-2-yl)-amide], for which the agonistic activity result is “agonistic activity”.

Regarding `O=C(Nc1nc(-c2ccccc2)cs1)N1CCCN(C(=O)C2CCOCC2)CC1` [4-(Tetrahydro-pyran-4-carbonyl)-[1,4]diazepane-1-carboxylic acid (4-phenyl-thiazol-2-yl)-amide], the agonistic activity entry is recorded as “agonistic activity”.

As for `CCC(C)c1ccc(NC(=O)N2CCCN(C(=O)C3CCOCC3)CC2)cc1` (stereo not drawn) [4-(Tetrahydro-pyran-4-carbonyl)-[1,4]diazepane-1-carboxylic acid (4-sec-butyl-phenyl)-amide], the agonistic activity result is “agonistic activity”.

As to `Cc1sc(NC(=O)N2CCCN(C(=O)C3CCOCC3)CC2)nc1C(C)(C)C` [4-(Tetrahydro-pyran-4-carbonyl)-[1,4]diazepane-1-carboxylic acid (4-tert-butyl-5-methyl-thiazol-2-yl)-amide], the agonistic activity entry is reported as “agonistic activity”.

As for `CC(C)(C)c1csc(NC(=O)N2CCCN(C(=O)C3CCOCC3)CC2)n1` [4-(Tetrahydro-pyran-4-carbonyl)-[1,4]diazepane-1-carboxylic acid (4-tert-butyl-thiazol-2-yl)-amide], the agonistic activity entry is on record as “agonistic activity”.

For the compound `O=C(Nc1ccc(C(F)(F)F)cc1)N1CCCN(C(=O)C2CCOCC2)CC1` [4-(Tetrahydro-pyran-4-carbonyl)-[1,4]diazepane-1-carboxylic acid (4-trifluoromethyl-phenyl)-amide], the agonistic activity entry is “agonistic activity”.

As for `O=C(Nc1cc(C(F)(F)F)ccn1)N1CCCN(C(=O)C2CCOCC2)CC1` [4-(Tetrahydro-pyran-4-carbonyl)-[1,4]diazepane-1-carboxylic acid (4-trifluoromethyl-pyridin-2-yl)-amide], the agonistic activity entry was “agonistic activity”.

Take `O=C(Nc1ccc(SC(F)(F)F)cc1)N1CCCN(C(=O)C2CCOCC2)CC1` [4-(Tetrahydro-pyran-4-carbonyl)-[1,4]diazepane-1-carboxylic acid (4-trifluoromethylsulfanyl-phenyl)-amide]: the agonistic activity result is on record as “agonistic activity”.

Take `CC(C)c1cnc(NC(=O)N2CCCN(C(=O)C3CCOCC3)CC2)s1` [4-(Tetrahydro-pyran-4-carbonyl)-[1,4]diazepane-1-carboxylic acid (5-isopropyl-thiazol-2-yl)-amide]: the agonistic activity result was “agonistic activity”.

On to `O=C(Nc1cc(-c2ccccc2)on1)N1CCCN(C(=O)C2CCOCC2)CC1` [4-(Tetrahydro-pyran-4-carbonyl)-[1,4]diazepane-1-carboxylic acid (5-phenyl-isoxazol-3-yl)-amide], for which the agonistic activity result is listed as “agonistic activity”.

For `CCC(C)c1cc(NC(=O)N2CCCN(C(=O)C3CCOCC3)CC2)n(C)n1` (stereo not drawn) [4-(Tetrahydro-pyran-4-carbonyl)-[1,4]diazepane-1-carboxylic acid (5-sec-butyl-2-methyl-2H-pyrazol-3-yl)-amide], the agonistic activity result was “agonistic activity”.

On to `CCC(C)c1ccc(NC(=O)N2CCCN(C(=O)C3CCOCC3)CC2)nc1` (stereo not drawn) [4-(Tetrahydro-pyran-4-carbonyl)-[1,4]diazepane-1-carboxylic acid (5-sec-butyl-pyridin-2-yl)-amide], for which the agonistic activity entry is on record as “agonistic activity”.

On to `CC(C)(C)c1cc(NC(=O)N2CCCN(C(=O)C3CCOCC3)CC2)[nH]n1` [4-(Tetrahydro-pyran-4-carbonyl)-[1,4]diazepane-1-carboxylic acid (5-tert-butyl-2H-pyrazol-3-yl)-amide], for which the agonistic activity entry is recorded as “agonistic activity”.

For the compound `Cc1nc(NC(=O)N2CCCN(C(=O)C3CCOCC3)CC2)sc1C(C)(C)C` [4-(Tetrahydro-pyran-4-carbonyl)-[1,4]diazepane-1-carboxylic acid (5-tert-butyl-4-methyl-thiazol-2-yl)-amide], the agonistic activity result is reported as “agonistic activity”.

For the compound `CC(C)(C)c1cc(NC(=O)N2CCCN(C(=O)C3CCOCC3)CC2)no1` [4-(Tetrahydro-pyran-4-carbonyl)-[1,4]diazepane-1-carboxylic acid (5-tert-butyl-isoxazol-3-yl)-amide], the agonistic activity result was “agonistic activity”.

As for `O=C(Nc1ccc(C(F)(F)F)cn1)N1CCCN(C(=O)C2CCOCC2)CC1` [4-(Tetrahydro-pyran-4-carbonyl)-[1,4]diazepane-1-carboxylic acid (5-trifluoromethyl-pyridin-2-yl)-amide], the agonistic activity entry was “agonistic activity”.
